Results from patent US20060105013A1, “Osteopontin-coated surfaces and methods of use” (priority 2000, published 2006).

Tests used:
HOS cells [1] = experiment: Extracellular matrix mineralization (calcium content) of HOS cells on coated Ti disks; type: cell-based, human; details: ascorbate and β-glycerol phosphate, uncoated did not mineralize
Description: HOS cells were grown either on coated or uncoated titanium disks. Media was supplemented with ascorbate and b-glycerol phosphate to stimulate the mineralization of the extracellular matrix. After two weeks, media was removed and the cells were lysed with triton. Then, all soluble components were removed and calcium content was determined using quantitative, calorimetric determination at […] (Sigma Diagnostics Calcium). Basically, calcium reacts with o-cresolphthalein, a chromogenic agent that in an alkaline medium forms a purple colored complex. The intensity of the color, measured at […], is directly proportional to calcium concentration in the sample.
HOS cells were grown either on coated or uncoated titanium disks. Media was supplemented with ascorbate and β-glycerol phosphate. After two weeks, media was removed and the cells were lysed. Then, all soluble components were removed and calcium content was determined using quantitative, colorimetric determination at 575 nm (Sigma Diagnostics Calcium). All measurements were done in triplicates and reported as mean±Standard error in the mean.
When cultured in the presence of ascorbate and β-glycerol phosphate, HOS cells grown on coated Ti disks mineralized their extracellular matrix within 2 weeks (FIG. 5) in a manner similar to HOS cells cultured on plastic. […]

HOS cells [2] = experiment: Proliferation of HOS cells on plastic, glass or CrCo surfaces coated with rhOPN; type: cell-based, human
Description: Cell proliferation was determined by the rate of ^3H-Thymidine incorporation into DNA. Cells labeled with ^3H-Thymidine were seeded for 6 hours, then lysed with TCA. The TCA insoluble material was collected and resuspended in 0.5 N NaOH. ^3H-thymidine incorporation into TCA insoluble material was used as an index for cell proliferation. Rate of proliferation is expressed as cpm/1000 cells/6 h. All measurements were done in triplicates.
Since rhOPN promoted cell attachment to different surfaces, it was of interest to examine whether the protein had any effect on the proliferation of HOS grown on these surfaces.

Q: How did the “time within which HOS cells mineralized their extracellular matrix” value (HOS cells [1]) turn out when “rhOPN: human recombinant phosphorylated form of osteopontin” was run?
A: ≤ 2 weeks

Q: And the “Proliferation Rate” value (HOS cells [2]; CrCo)?
A: 1740 Cpm/6 h/1000 cells

Q: And the “Proliferation Rate” value (HOS cells [2]; Glass)?
A: 2740 Cpm/6 h/1000 cells

Q: What about the “Proliferation Rate” value (HOS cells [2]; Plastic) of the same substance?
A: 3300 Cpm/6 h/1000 cells

Q: What about the “proliferation rate relative to cells grown on uncoated surfaces” value (HOS cells [2]; glass, plastic and chromocobalt surfaces) of the same substance?
A: at least twice
